According to article PMC6259748, “Selection of Peptides Targeting Helix 31 of Bacterial 16S Ribosomal RNA by Screening M13 Phage-Display Libraries” (Molecules, 2011):

What was measured:
[1] = system: translation of green fluorescent protein (GFP); experiment: coupled in vitro transcription-translation inhibition assay (GFP); assay type: biochemical, E. coli; conditions: for inhibition of in vitro protein synthesis: cell-free translation, summary statement; for GFP fluorescence lower compared to DIRTQRE: peptide 1 mM, at 120 min, ex 487 nm; for order of translation inhibition by peptides (from high to low) / inhibitory effect on protein translation: peptides at 1 mM, GFP fluorescence; for inhibitory effect on protein translation: in words
Experimental: A cell-free translation assay was used to test the potential inhibitory effects of the peptides on protein synthesis. Different concentrations of peptides were added to E. coli S30 extracts and the extent of inhibition was monitored by the measurement of green fluorescent protein (GFP) translation.
The inhibitory effects of selected peptides (DIRTQRE, CVRPFAL, FVRPFAL, TLWDLIP and TYLPWPA) on cellular processes were determined by in vitro coupled transcription-translation inhibition assay. The PURExpress™ in vitro protein synthesis kit #E6800S from New England Biolabs (Beverly, MA) was used for this purpose. A DNA template for GFP (pRSETEmGFP plasmid, Invitrogen) was employed at a concentration of 10 µg/mL in a 15 µL of reaction volume. Different concentrations of peptides were added, ranging from 300 µM to 2 mM. The DNA template was added only after mixing of the peptides or streptomycin so that they could bind to their target region first. For the control, streptomycin was added at a final concentration of 300 µM. The reaction was incubated in 384-well, Costar, clear-well, black plates and in situ incubated at 37 °C in a Gemini XPS microplate spectrofluorometer (Molecular Devices, Sunnyvale, CA) and the amount of GFP produced was monitored at different time intervals from 0 min to 2 h by fluorescence (excitation at 487 nm, emission at 509 nm).

[2] = system: GFP-S11-labeled 30S subunits; experiment: ribosome-binding assay on Tentagel beads; parameters: species or system E. coli; conditions: for order of binding preference by the 30S subunits (from high to low): fluorescence microscopy, pH 7.3; for fluorescence on beads after 30S binding: peptide on Tentagel beads, 30S subunits overnight at 4 °C, 20 mM HEPES, pH 7.3, 10 mM MgCl2, 100 mM KCl, duplicate
Experimental: The purpose of this experiment was to determine whether the selected peptides have affinity for bacterial ribosomes. The binding affinities of various peptides could also be compared by this method. Small ribosomal subunits, 30S, labeled with GFP on ribosomal protein S11 were added to peptides covalently attached to Tentagel beads (Figure 4A). […] The peptides were chemically synthesized on Tentagel beads with their N-termini exposed. Increasing concentrations of GFP-tagged 30S subunits were added to the Tentagel-bound peptides and unbound 30S subunits were removed by washing. Relative fluorescence intensity of the 30S subunits bound to the peptides on bead was determined by imaging on a fluorescence microscope, with the assumption that the level of fluorescence on the beads was proportional to the affinity of the ribosome for the peptide sequence.
Four peptides isolated from the phage-display experiment, […], DIRTQRE, TLWDLIP, and […], were synthesized on Tentagel (Rapp Polymer, Tübingen, Germany) beads using standard Fmoc synthesis. The beads were stored in DMF until use. The beads were then washed three times with 450 μl of water, and three times with 450 μL of the binding buffer B (binding buffer: 20 mM HEPES, pH 7.3, 10 mM MgCl2, 100 mM KCl), using 0.45 μm MWCO Nanosep (Pall Corporation, Ann Arbor, MI). The beads were then centrifuged at 6,000 rpm for 1–2 min.
Fluorescently labeled 30S subunits were isolated by sucrose gradient centrifugation in 5 mM Mg^2+ [82]. For control experiments, His(6)-EmGFP-S11 was purified using IMAC resin (Bio-Rad, Hercules, CA) and the fluorescence was assayed using beads carrying peptides with ribosomes, beads carrying peptides with His(6)-EmGFP-S11 (no ribosomes) and beads only with ribosomes (no peptides).
The fluorescent ribosomes were incubated in binding buffer B (20 mM HEPES, pH 7.3, 10 mM MgCl2, 100 mM KCl) at 37 °C for 30 min. Next, 25 pmoles of ribosome solution was added to each peptide, and the mixture was incubated overnight at 4 °C with agitation. Unbound ribosomes were removed by two 450 μL washes with binding buffer B and centrifugation at 6,000 rpm for 1–2 min. The beads were resuspended in 40 μL of binding buffer B for microscope screening and kept on ice until scanning. The beads (20 μL) were spread on microscope slides for scanning (Olympus 1X71 microscope, TH4 100 Olympus lamp, Olympus UCMAD 3 camera, 20× magnification). An average of two pictures were taken per slide, eliminating beads presenting uneven swelling and cracks.

wild-type modified h31 = experiment: surface plasmon resonance (SPR), modified h31; assay type: binding, E. coli
Experimental: Modified h31 was labeled with biotin in order to immobilize the RNA onto a surface and determine the kinetics of peptide binding by surface plasmon resonance (SPR). […] In order to enhance the signal-to-noise ratio, a GFP-protein-fused peptide, TYLPWPA-GFP, was generated and used as the analyte.
Biotinylated, modified h31 RNA was immobilized onto a streptavidin-coated CM5 chip and differing concentrations of TYLPWPA-GFP (10–100 µM) were injected as the analyte. A range of salt concentrations, detergent levels, pH conditions, and flow rates were tested, since these factors affect the peptide-RNA complex formation (data not shown). The apparent dissociation constants were determined under the following optimized conditions: 10 mM Tris·HCl, 150 mM NaCl, 10 mM MgCl2, 1 mM dithiothreitol (DTT), 0.005% (v/v) P20 at pH 7.5 as the running buffer at a flow rate of 50 μL/min.
All immobilization and subsequent binding studies were performed using a BIAcore 2000 instrument set at a temperature of 25 °C. Standard dextran surface BIAcore sensorchips (Sensor chip CM5) were purchased from BIAcore (GE Healthcare, Piscataway, NJ). Standard desorb and sanitize routines were performed according to the BIAcore guidelines before docking a new CM5 sensor chip. All buffers were filtered through sterile 0.2 μm nylon membranes (Millipore™) under vacuum. Before derivatizing the flow cells with streptavidin, the CM5 sensor chip was pre-conditioned using three successive 10 μL injections of chip-preparation solution (10 mM NaOH, 500 mM NaCl) at 100 μL/min, followed by a normalization routine using BIAnormalizing solution (40% glycerol). Streptavidin derivatization was performed according to standard procedures.
Prior to immobilization, the solution of biotinylated RNA in HBS-EP buffer (10 mM HEPES, 3 mM EDTA, 150 mM NaCl, 0.005% P20 at pH 7.4) was renatured by heating to 90 °C for 2 min, cooling gradually to room temperature, and placing on ice. Flow cells were functionalized by injecting 30 μL of RNA at a time using the MANUAL INJECT command at a flow rate of 10 μL/min, until the desired immobilization level was reached. One of the flow cells was used to immobilize RNA, while the adjacent cell remained unmodified to serve as a blank-control for matrix effects. Levels of RNA captured were calculated by subtracting […] for each flow cell. After RNA immobilization, both flow cells were blocked with 100 μL of 1 mg/mL biotin at 5 μL/min.
For the SPR experiments, the peptides were cloned into plasmid pBacEmGH (Cunningham Lab, to be described elsewhere) under transcriptional regulation of a PBAD promoter. Upon induction with L-arabinose, the resulting construct produces a fusion protein in which the peptide is fused to the N-terminus of EmGFP containing a C-terminus 6 x His affinity tag (PEP-EmGFP-6 x His).
Peptide samples were prepared by serial dilutions from stock solutions. Dilutions were made in running buffer (10 mM Tris·HCl, 150 mM NaCl, 10 mM MgCl2, 1 mM DTT, 0.005% (v/v) P20 at pH 7.5). All procedures for binding were automated, as optimized methods using repetitive cycles of sample injection and regeneration. Typically, running buffer was injected for ~30 min prior to experiment to establish a stable baseline value. Peptide solutions (200 μL) were injected at a kinetic flow rate of 50 μL/min, using the KINJECT command. All peptide samples were injected from 7 mm plastic vials (BIAcore) that were capped with pierceable plastic-crimp-caps to minimize carry-over and sample evaporation. Samples were injected in order of increasing concentration. The surface was regenerated using 150 μL of 500 mM NaCl. The data were fit to a 1:1 binding Langmuir model using BIAevaluation 3.0 software. […]

[3] = system: TYLPWPA-GFP (synthetic fusion (expressed by L-arabinose induction)); experiment: SPR; conditions: m2G966; m5C967 (E. coli numbering); 5' phosphorothioate; SPR: 10 mM Tris-HCl pH 7.5, 150 mM NaCl, 10 mM MgCl2, 1 mM DTT, 0.005% P20, 50 uL/min, streptavidin-coated CM5 chip; CD: 10 mM sodium phosphate pH 7, 100 mM …
[4] = system: TLWDLIP-GFP (synthetic fusion (expressed by L-arabinose induction)); experiment: SPR; conditions: m2G966; m5C967 (E. coli numbering); 5' phosphorothioate; SPR: 10 mM Tris-HCl pH 7.5, 150 mM NaCl, 10 mM MgCl2, 1 mM DTT, 0.005% P20, 50 uL/min, streptavidin-coated CM5 chip; CD: 10 mM sodium phosphate pH 7, 100 mM …
GFP (EmGFP) = experiment: SPR; conditions: m2G966; m5C967 (E. coli numbering); 5' phosphorothioate; SPR: 10 mM Tris-HCl pH 7.5, 150 mM NaCl, 10 mM MgCl2, 1 mM DTT, 0.005% P20, 50 uL/min, streptavidin-coated CM5 chip; CD: 10 mM sodium phosphate pH 7, 100 mM …
[5] = system: CVRPFAL-GFP (synthetic fusion (expressed by L-arabinose induction)); experiment: SPR; conditions: m2G966; m5C967 (E. coli numbering); 5' phosphorothioate; SPR: 10 mM Tris-HCl pH 7.5, 150 mM NaCl, 10 mM MgCl2, 1 mM DTT, 0.005% P20, 50 uL/min, streptavidin-coated CM5 chip; CD: 10 mM sodium phosphate pH 7, 100 mM …
TYLPWPA peptide [6] = target: T1, TYLPWPA peptide (synthetic (phage display)); experiment: fluorescence titration (quenching); 10 mM HEPES, 50 mM NaCl, 1 mM Na2EDTA, pH 7.5, 25 C; apparent, 7% signal change; SPR: 10 mM Tris-HCl pH 7.5, 150 mM NaCl, 10 mM MgCl2, 1 mM DTT, 0.005% P20, 50 uL/min, streptavidin-coated CM5 chip; CD: 10 mM sodium phosphate pH 7, 100 mM NaCl, 0.1 mM Na2EDTA, 25 C; fluorescence: 10 mM HEPES pH 7.5, 50 mM NaCl, 1 mM Na2EDTA, 25 C; conditions: label: 5'-fluorescein; hairpin
T1 chain: TYLPWPA

TYLPWPA peptide [7] = target: T1, TYLPWPA peptide; experiment: CD titration; 100 mM NaCl, 10 mM sodium phosphate, 0.1 mM Na2EDTA, pH 7.0, 25 C; apparent, poor fit; SPR: 10 mM Tris-HCl pH 7.5, 150 mM NaCl, 10 mM MgCl2, 1 mM DTT, 0.005% P20, 50 uL/min, streptavidin-coated CM5 chip; CD: 10 mM sodium phosphate pH 7, 100 mM NaCl, 0.1 mM Na2EDTA, 25 C; fluorescence: 10 mM HEPES pH 7.5, 50 mM NaCl, 1 mM Na2EDTA, 25 C; conditions: hairpin

## [H]/N=C(/N)N[C@H]1[C@H](O)[C@@H](O)[C@H](O[C@@H]2O[C@@H](C)[C@](O)(C=O)[C@H]2O[C@@H]2O[C@@H](CO)[C@H](O)[C@@H](O)[C@@H]2NC)[C@@H](N/C(N)=N\[H])[C@@H]1O [Streptomycin, streptomycin, reference compound]
[1]; 300 µM, positive control, 37 °C, fluorescence ex 487 nm, em 509 nm
  inhibition of GFP translation: completely inhibited GFP translation

## CVRPFAL [heptapeptide from selection against modified h31 with unmodified h31 counter selection]
[1]
  inhibition of in vitro protein synthesis: inhibit in vitro protein synthesis
  inhibitory effect on protein translation: best inhibitory effects
[1]; em 509 nm
  GFP fluorescence lower compared to DIRTQRE: four
[1]; 37 °C
  order of translation inhibition by peptides (from high to low): CVRPFAL ≈ FVRPFAL > TLWDLIP > TYLPWPA > DIRTQRE
[2]; Tentagel beads
  order of binding preference by the 30S subunits (from high to low): TYLPWPA > CVRPFAL ≈ TLWDLIP > DIRTQRE
[2]
  fluorescence on beads after 30S binding: Fluorescence is observed
wild-type modified h31; in words, comparable to known antibiotics targeting 16S rRNA
  binding affinity to modified h31: high nM

## DIRTQRE [heptapeptide selected against wild-type modified h31]
[1]; 37 °C
  order of translation inhibition by peptides (from high to low): CVRPFAL ≈ FVRPFAL > TLWDLIP > TYLPWPA > DIRTQRE
[2]; Tentagel beads
  order of binding preference by the 30S subunits (from high to low): TYLPWPA > CVRPFAL ≈ TLWDLIP > DIRTQRE
[2]; Tentagel beads, quantified fluorescence, of the four peptides tested
  relative binding affinity to 30S subunits: lowest relative affinity
[2]
  fluorescence on beads after 30S binding: Fluorescence is observed

## FVRPFAL [heptapeptide selected against wild-type modified h31]
[1]
  inhibition of in vitro protein synthesis: promising results in the in vitro translation assay
  inhibitory effect on protein translation: best inhibitory effects
[1]; em 509 nm
  GFP fluorescence lower compared to DIRTQRE: four
[1]; 37 °C
  order of translation inhibition by peptides (from high to low): CVRPFAL ≈ FVRPFAL > TLWDLIP > TYLPWPA > DIRTQRE

## GUUCGAUGCAACGCGAAC [modified h31 (wild-type), biotinylated]
[3]
  Kd: 28 µM
[4]
  Kd: 0.33 µM
GFP (EmGFP)
  Kd: 20 µM
[5]
  Kd: 0.23 µM

## TYLPWPA-GFP
wild-type modified h31; 1:1 Langmuir, 10 mM Tris·HCl, 150 mM NaCl, 10 mM MgCl2, 1 mM DTT, 0.005% P20, pH 7.5, 50 μL/min, 25 °C, CM5 chip
  ka (association rate constant): (1.50 ± 0.02) × 10^2 M^-1s^-1
wild-type modified h31; 1:1 Langmuir, pH 7.5, 150 mM NaCl, 10 mM MgCl2, 50 μL/min, 25 °C, CM5 chip
  kd (dissociation rate constant): (4.2 ± 0.04) × 10^-3 s^-1
wild-type modified h31; SPR kinetic analysis, 1:1 Langmuir, pH 7.5, 150 mM NaCl, 10 mM MgCl2, 50 μL/min, 25 °C, TYLPWPA-GFP 10–100 µM
  KD (kd/ka): 28 ± 1 µM

## GUUCGAUGCAACGCGAAC (structured_RNA, m2G966; m5C967 (E. coli numbering); 5' phosphorothioate) [F-h31 (modified h31, fluorescein)]
TYLPWPA peptide [6]
  Kd: 27 ± 4 µM

## GUUCGAUGCAACGCGAAC (structured_RNA, m2G966; m5C967 (E. coli numbering)) [modified h31 (wild-type), unlabeled]
TYLPWPA peptide [7]
  Kd: 28 ± 10 µM
